The results in this text go back to patent US11638706B2, “Methods for treating Huntington's disease” (PTC Therapeutics, Inc., priority 2015, dated 2023).

The test system of this experiment is Huntingtin protein (HTT). Kind of experiment: Endogenous Huntingtin Protein Assay (MSD electrochemiluminescence ELISA; MW1 or MAB2166 capture, #5656S detection). The format is cell-based, human. As to the method: The Endogenous Huntingtin Protein assay used in Example 2 was developed using the Best Pair antibodies identified in Table 2, providing highly sensitive, high-throughput detection assays for polyglutamine-expanded (mHTT) and total human HTT in multiple cell systems. The platform used for the assay is the ELISA-based Meso Scale Discovery (MSD) electrochemiluminescence assay platform.
Meso Scale Discovery (MSD) 96-well or 384-well plates were coated overnight at 4° C. with MW1 (expanded polyglutamine) or MAB2166 monoclonal antibody (for capture) at a concentration of 1 μg/mL in PBS (30 μL per well). Plates were then washed three times with 300 μL wash buffer (0.05% Tween-20 in PBS) and blocked (100 μL blocking buffer; 5% BSA in PBS) for 4-5 hours at room temperature with rotational shaking and then washed three times with wash buffer.
Samples (25 μL) were transferred to the antibody-coated MSD plate and incubated overnight at 4° C. After removal of the lysates, the plate was washed three times with wash buffer, and 25 μL of #5656S (Cell signaling; rabbit monoclonal) secondary antibody (diluted to 0.25 μg/mL in 0.05% Tween-20 in blocking buffer) was added to each well and incubated with shaking for 1 Hour at room temperature. Following incubation with the secondary antibody, the wells were rinsed with wash buffer after which 25 μL of goat anti-rabbit SULFO TAG secondary detection antibody (required aspect of the MSD system) (diluted to 0.25 μg/mL in 0.05% Tween-20 in blocking buffer) was added to each well and incubated with shaking for 1 hour at room temperature. After rinsing three times with wash buffer, 150 μL of read buffer T with surfactant (MSD) were added to each empty well, and the plate was imaged on a SI 6000 imager (MSD) according to manufacturers' instructions provided for 96- or 384-well plates.
A general note: ELISA stands for enzyme-linked immunosorbent assay.

Each structure is given as a SMILES string. pIC50: −log10 of the molar value. Where only a bound is given, the exact number is not on record here.

On to `CC1(C)CC(Oc2ccc(-c3ccc(-c4cn[nH]c4)cc3C(F)F)nn2)CC(C)(C)N1` [Cpd 464, 3-[2-(difluoromethyl)-4-(1H-pyrazol-4-yl)phenyl]-6-[(2,2,6,6-tetramethylpiperidin-4-yl)oxy]pyridazine], for which the pIC50 (commonly the IC50 on a negative log10 scale, so that one unit is a factor of ten) was 5.05 to 5.52.
To `CC1(C)CC(Oc2ccc(-c3ccc(-c4cn[nH]c4)cc3F)nn2)CC(C)(C)N1` [Cpd 437, 3-[2-fluoro-4-(1H-pyrazol-4-yl)phenyl]-6-[(2,2,6,6-tetramethylpiperidin-4-yl)oxy]pyridazine] belongs 5.52 to 6.00; to `CN(c1nnc(Oc2ccc(-c3cn[nH]c3)cc2)s1)C1CC(C)(C)NC(C)(C)C1` [Cpd 463, N,2,2,6,6-pentamethyl-N-{5-[4-(1H-pyrazol-4-yl)phenoxy]-1,3,4-thiadiazol-2-yl}piperidin-4-amine], 5.05 to 5.52; to `Cn1cc(-c2csc(-c3ccc(OC4CC(C)(C)NC(C)(C)C4)nn3)c2)cn1` [Cpd 438, 3-[4-(1-methyl-1H-pyrazol-4-yl)thiophen-2-yl]-6-[(2,2,6,6-tetramethylpiperidin-4-yl)oxy]pyridazine], 5.52 to 6.00.
Next, `CN(c1ccc(-c2ccc(-n3cc(N)cn3)cc2O)nn1)C1CC(C)(C)NC(C)(C)C1` [Cpd 47, 5-(4-amino-1H-pyrazole-1-yl)-2-(6-(methyl(2,2,6,6-tetramethylpiperidin-4-yl)amino)pyridazin-3-yl)phenol]: 6.30 to 7.00; `CN(c1ccc(-c2cc3ccccc3cc2O)nn1)C1CC(C)(C)NC(C)(C)C1` [Cpd 26, 3-(6-(methyl(2,2,6,6-tetramethylpiperidin-4-yl)amino)pyridazin-3-yl)naphthalen-2-ol]: 6.30 to 7.00.
To `CN(c1nnc(Oc2cccc(-c3cn[nH]c3)c2)s1)C1CC(C)(C)NC(C)(C)C1` [Cpd 462, N,2,2,6,6-pentamethyl-N-{5-[3-(1H-pyrazol-4-yl)phenoxy]-1,3,4-thiadiazol-2-yl}piperidin-4-amine] belongs 5.05 to 5.52.
For the compound `CN(c1nnc(-c2ccc(-c3ccn(C)c(=O)c3)cc2O)s1)C1CC(C)(C)NC(C)(C)C1` [Cpd 318], the negative-log IC50 (pIC50) is at least 7.00.
